Assay [1] concerns platelet aggregation in platelet-rich plasma (PRP). In words: Platelet aggregation in human platelet-rich plasma (aggregometer, light transmittance). The format is cell-based. The conditions noted are these: for ability to counteract platelet aggregation by arachidonic acid: aggregation induced by arachidonic acid, human PRP. The protocol:
Platelet aggregation experiments were performed on platelet-rich plasma (PRP) prepared from blood of healthy human subjects, who had not taken cyclooxygenase inhibitors (acetylsalicylic acid, non-steroidal anti-inflammatory agents) for at least two weeks. Blood was collected in test tubes containing a 3.2% sodium citrate solution ( 1/10 of blood volume) and immediately centrifuged at 150×g for 15 minutes. Samples of PRP were further centrifuged at 12,000×g in order to obtain platelet-poor plasma (PPP), used for calibration of light transmittance of the double-channel aggregometer, fixing the transmittance of PRP as 10% and that of PPP as 90%. Platelet aggregation in PRP of each subject was tested measuring the percent increase in transmittance under the addition of increasing amounts of sodium arachidonate, in concentrations in the range from 300 to 900 μM, or of collagen, in concentrations in the range from 0.5 to 2.5 μg/ml, or of U-46619, in concentrations in the range from 0.2 to 1.6 μM. (U-46619, i.e., 9,11-dideoxy-11α, 9α-epoxymethano-prostaglandin F2α is an active synthetic analogue of thromboxane A2 and it is chemically stable, at difference from the natural compound; it is therefore used as a substitute in pharmacological experiments). In this way the threshold concentration, i.e., the concentration inducing a submaximal irreversible aggregation was assessed in each subject with the three agents.
PRP samples of subjects not responding to the maximal concentrations were discarded.

Another assay has as its system thromboxane synthesis. In words: Thromboxane synthesis in clotting blood (serum TxB2 by radioimmunoassay). Type of assay: cell-based. The conditions noted are these: human blood clotted 60 min at 37° C. The procedure: Test compounds were added in a series of concentrations ranging from 10^−7 M to 10^−3 M to samples of blood from healthy human subjects, who had not taken cyclooxygenase inhibitors (acetylsalicylic acid, non-steroidal anti-inflammatory agents) for at least two weeks. The blood samples were allowed to clot for 60 min in a bath at 37° C., and then centrifuged at 2500×g for 10 min. The serum was separated and kept frozen at −20° C. for the determination of TxB2 by radio immunoassay. TxB2 is the stable metabolite into which thromboxane A2 is rapidly converted.

For assay [2], the system named is transcellular synthesis of prostacyclin. In words: Transcellular prostacyclin synthesis: human PRP layered on acetylsalicylic acid-pretreated cultured bovine endothelial cells (6-keto-prostaglandin F1α by radioimmunoassay). Type of assay: cell-based. The protocol:
The effects on the transcellular synthesis of prostacyclin from endoperoxides generated in platelets were assessed by layering platelet rich plasma (PRP), obtained from healthy human subjects as described above, on cultured bovine endothelial cells (5×10^5 cells/well). The endothelial cells were pretreated with acetylsalicylic acid (10^−4 M) in order to inhibit the direct synthesis of endoperoxides, and washed twice with Dulbecco's phosphate buffered saline. Then to individual samples of endothelial cells there were added at 37° C. while shaking on an oscillating platform, 0.5 ml of PRP samples pretreated with the test compounds in various concentrations, ranging from […] to 10^−3 M. Collagen (0.5 μg/ml) was then added to each sample. After 2 minutes of contact at 37° C., PRP was removed and centrifuged at 12,000×g, and the supernatant was frozen and kept at −20° C. for the determination of 6-keto-prostaglandin F1α by radioimmunoassay.
6-Keto-prostaglandin F1α is a stable metabolite into which prostacyclin is rapidly converted.

The next assay deals with rabbit aortae. The assay can be described thus: Vascular relaxation of contracted aortic rings in vitro. To be noted: at a concentration of 10^−4 M; contraction induced with norepinephrine (10^−6 M). The procedure: The ability to induce vascular relaxation by acting as a donor of nitric oxide was tested in vitro on rabbit aortae. Rings of aortae were suspended in a Krebs-Henseleit solution at 37° C., submitted to a 1 g tension and connected to a force transducer.

`O=C(O)/C=C/c1ccc(Cn2ccnc2)cc1` [ozagrel, (E)-3-[4-(1H-imidazol-1-ylmethyl)-phenyl]-2-propenoic acid]: the “ability to counteract platelet aggregation by arachidonic acid” value (“ability … by arachidonic acid” below) in assay [1] was “shared”. For the same compound, the “effect on thromboxane synthesis” value in the assay with thromboxane synthesis was “at difference from acetylsalicylic acid and ozagrel”.
`O=C(O)Cc1ccc(CCNS(=O)(=O)c2ccc(Cl)cc2)cc1` [daltroban, p-[2-(p-chlorobenzenesulfonamido)ethyl]phenylacetic]: the “ability to counteract the aggregation by U-46619” value in assay [1] (aggregation induced by U-46619, human PRP) is reported as “shared only by daltroban”. Further, in assay [1], the “ability … by arachidonic acid” value is on record as “shared”. Further, in assay [2] (PRP on acetylsalicylic acid-treated bovine endothelial cells), the “stimulation of the synthesis of prostacyclin” value was “did not stimulate the synthesis of prostacyclin”.
On to `CC(=O)Oc1ccccc1C(=O)O` [acetylsalicylic acid], for which, in assay [1], the “ability … by arachidonic acid” value is listed as “shared”. Also, in the assay on thromboxane synthesis, the “effect on thromboxane synthesis” value was “at difference from acetylsalicylic acid and ozagrel”.
`COc1ccc(C(=O)N[C@H]2CC[C@H](O[N+](=O)[O-])CC2)cc1C(=O)NCc1cccnc1` [4-Methoxy-N^1-(4-trans-nitrooxycyclohexyl)-N^3-(3-pyridinylmethyl)-1,3-benzenedicarboxamide]: the “level of prostacyclin metabolite relative to the amount produced in basal conditions by endothelial cells not submitted to cyclooxygenase inhibition” value in assay [2] (acetylsalicylic acid-treated endothelial cells, collagen 0.5 μg/ml) is on record as 8-16 times. In addition, the “production of the prostacyclin metabolite (6-keto-prostaglandin F1α), level reached” value in assay [2] (acetylsalicylic acid-treated endothelial cells, collagen 0.5 μg/ml, 2 minutes at 37° C.) is 800-1600 μpg/ml. Also, the “concentration from which production of the prostacyclin metabolite was markedly increased” value in assay [2] (collagen 0.5 μg/ml, 2 minutes at 37° C., 6-keto-prostaglandin F1α) is reported as ≥ 10^−6 M. In addition, the “relaxation of the aortic ring” value in the assay on rabbit aortae was “complete relaxation”.

Values taken from patent US6525078B1, “Compound for the treatment of atherosclerotic-thrombotic pathological conditions” (priority 2002, dated 2003).
